This is an account of results in patent US10723695B2, “Microbiocidal phenylamidine derivatives” (SYNGENTA PARTICIPATIONS AG, priority 2015, dated 2020).

Each structure is given as a SMILES string. Where only a bound is given, the exact number is not on record here.

The test system of series [1] is Puccinia recondita f. sp. tritici. Nature of the series: Puccinia recondita f. sp. tritici / wheat / leaf disc preventative (brown rust). The format is in vivo. As to conditions: foliar, wheat leaf segments cv. Kanzler, compared to untreated control leaf disks, read-out: disease control. In a few lines: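 Wheat leaf segments (cv. Kanzler) on agar were sprayed preventatively with formulated compound diluted in water and inoculated with spores 1 day later. They were incubated at 19 °C, 75% rh, 12 h light/12 h dark. Percent disease control versus untreated was scored 7-9 days after application.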

In series [2] the test system is Phakopsora pachyrhizi. In words: Phakopsora pachyrhizi / soybean / leaf disk preventative (soybean rust). It counts as in vivo. As to conditions: foliar, soybean leaf disks, compared to untreated control leaf disks, read-out: disease control. In a few lines:
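Four-week-old soybean plants sprayed with formulated compound in water; leaf disks cut 1 day later, inoculated on the lower surface with spore suspension. Held 24-36 h dark at 20° C, 75% rh, then 20° C with 12 h light/day; % diseased disk area scored 12-14 days after application.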

The subject of series [3] is Puccinia recondita f. sp. tritici. In words: Puccinia recondita f. sp. tritici / wheat / leaf disc curative (brown rust). The format is in vivo. As to conditions: foliar, 24 h, wheat leaf segments cv. Kanzler, curative (applied 1 day after inoculation), compared to untreated control leaf disks, read-out: disease control. How it is done: Puccinia recondita f. sp. tritici/Wheat/Leaf Disc Curative (Brown Rust) Wheat leaf segments cv. Kanzler are placed on agar in multiwell plates (24-well format). The leaf segments are inoculated with a spore suspension of the fungus. Plates were stored in darkness at 19° C. and 75% rh. The formulated test compound diluted in water was applied 1 day after inoculation.

Series [4] relates to Blumeria graminis f. sp. tritici (Erysiphe graminis f. sp. tritici). In words: Blumeria graminis f. sp. tritici / wheat / leaf disc preventative (powdery mildew on wheat). The format is in vivo. Particulars: foliar, wheat leaf segments cv. Kanzler, compared to untreated control leaf disks, read-out: disease control. From the text:
Blumeria graminis f. sp. tritici (Erysiphe graminis f. sp. tritici)/Wheat/Leaf Disc Preventative (Powdery Mildew on Wheat) Wheat leaf segments cv. Kanzler were placed on agar in a multiwell plate (24-well format) and sprayed with the formulated test compound diluted in water. The leaf disks were inoculated by shaking powdery mildew infected plants above the test plates 1 day after application.

A word on the melting point: it is the temperature of the solid-liquid transition. `C=C(C)C(O)(c1cc(C)c(/N=C/N(C)C(C)C)cc1OC)C(F)(F)F` (stereo not drawn) [Compound E1.081] displayed a melting point of 110 to 113 °C. In addition, the pest or weed control at 200 ppm in series [1] is at least 80%. Besides, the pest or weed control at 200 ppm in series [2] was at least 80%. The pest or weed control at 200 ppm in series [3] is at least 80%. Moreover, the pest or weed control at 200 ppm in series [4] is at least 80%.
Take `C=C(C)CC(O)(c1cc(C)c(/N=C/N(C)C(C)C)cc1OC)C(F)(F)F` (stereo not drawn) [Compound E1.082]: the melting point is 90 to 95 °C. Further, the pest or weed control at 200 ppm in series [1] is at least 80%. Further, the pest or weed control at 200 ppm in series [2] was at least 80%. Moreover, the pest or weed control at 200 ppm in series [3] was at least 80%. In series [4], the pest or weed control at 200 ppm is at least 80%.
With `C=CCC(O)(c1cc(C)c(/N=C/N(C)C(C)C)cc1OC)C(F)(F)F` (stereo not drawn) [Compound E1.084], the melting point lay within 45 to 50 °C. Besides, the pest or weed control at 200 ppm in series [1] is at least 80%. The pest or weed control at 200 ppm in series [2] is at least 80%. Besides, the pest or weed control at 200 ppm in series [3] was at least 80%. The pest or weed control at 200 ppm in series [4] was at least 80%.
On to `CCN(C)/C=N/c1cc(OC)c(C(O)(Cc2cc(C)ncn2)C(F)(F)F)cc1C` (stereo not drawn) [Compound E1.099], for which the melting point lay in the range of 82 to 85 °C. In addition, the pest or weed control at 200 ppm in series [1] is at least 80%. In addition, the pest or weed control at 200 ppm in series [2] was at least 80%. The pest or weed control at 200 ppm in series [3] is at least 80%. For the same compound, the pest or weed control at 200 ppm in series [4] is at least 80%.
Compound `CCN(C)/C=N/c1cc(OC)c(C(O)(Cc2cccc(OC)n2)C(F)(F)F)cc1C` (stereo not drawn) [Compound E1.100] showed a melting point of 92 to 95 °C. In addition, the pest or weed control at 200 ppm in series [1] was at least 80%. Further, the pest or weed control at 200 ppm in series [2] was at least 80%. In addition, the pest or weed control at 200 ppm in series [3] was at least 80%. Moreover, the pest or weed control at 200 ppm in series [4] is at least 80%.
Regarding `CCN(C)/C=N/c1cc(OC)c(C(O)(CC)c2ccccc2)cc1C` (stereo not drawn) [Compound E1.126], the melting point fell in the range of 87 to 89 °C. In series [1], the pest or weed control at 200 ppm was at least 80%. The pest or weed control at 200 ppm in series [2] is at least 80%. The pest or weed control at 200 ppm in series [3] is at least 80%. In series [4], the pest or weed control at 200 ppm is at least 80%.
